Measurements taken from patent publication US10954219B2, “1,3-benzodioxole derivative” (DAIICHI SANKYO COMPANY, LIMITED, priority 2014, dated 2021).

How the values were obtained:
NCI-H1703 = assay: Cell growth inhibitory activity evaluation, NCI-H1703; format: cell-based; details: NCI-H1703 (Lung cancer)
Description: (§1) Cell Growth Inhibitory Activity Evaluation
(§2) Cells were purchased from ATCC (G401 (human kidney-derived rhabdoid tumor), HepG2, LNCaP, LS180, MV4; 11, NCI-H1563, NCI-H1703, NCI-H520, NCI-H522, NCI-N87, RS4; 11, and THP-1), Deutsche Sammlung von Mikroorganismen und Zellkulturen GmbH (DSMZ) (KARPAS-422 (EZH2 Y641N mutant human diffuse large B-cell lymphoma) and KOPN8), and Health Science Research Resource Bank (OVMANA). […] Then, the luminescence intensity of each well was measured using a plate reader (EnVision, PerkinElmer, Inc.). The extent of cell growth inhibition was calculated from the luminescence intensity of a sample-supplemented group (Ts) and a DMSO-supplemented group (Cs) measured on the inoculation date and a sample-supplemented group (T) and a DMSO-supplemented group (C) measured on the effect determination date according to the following expression: Extent of cell growth inhibition (%)={1−(T−Ts)/(C−Cs)}×100
(§3) When the number of cells in the sample-supplemented group is decreased on the determination date compared with the inoculation date (T<Ts), a cytocidal effect was calculated according to the following expression: Cytocidal rate (%)=(T−Ts)/Ts×(−100)

KOPN8 = assay: Cell growth inhibitory activity evaluation, KOPN8; format: cell-based
Description: as §1, §2, §3

NCI-H1563 = assay: Cell growth inhibitory activity evaluation, NCI-H1563; format: cell-based; details: Homo sapiens, NCI-H1563 (Lung cancer), read-out: Extent of cell growth inhibition
Description: as §1, §2, §3

HepG2 = assay: Cell growth inhibitory activity evaluation, HepG2; format: cell-based; details: Homo sapiens, HepG2 (Liver cancer), read-out: Extent of cell growth inhibition
Description: as §1, §2, §3

RS4;11 = assay: Cell growth inhibitory activity evaluation, RS4;11; format: cell-based; details: RS4;11 (Leukemia)
Description: as §1, §2, §3

MV4;11 = assay: Cell growth inhibitory activity evaluation, MV4;11; format: cell-based; details: MV4;11 (Leukemia)
Description: as §1, §2, §3

LS180 = assay: Cell growth inhibitory activity evaluation, LS180; format: cell-based, human; details: LS180 (Colorectal cancer)
Description: as §1, §2, §3

OVMANA = assay: Cell growth inhibitory activity evaluation, OVMANA; format: cell-based; details: OVMANA (Ovarian cancer), read-out: Extent of cell growth inhibition
Description: as §1, §2, §3

NCI-H520 = assay: Cell growth inhibitory activity evaluation, NCI-H520; format: cell-based; details: Homo sapiens, NCI-H520 (Lung cancer), read-out: Extent of cell growth inhibition
Description: as §1, §2, §3

[1] = test system: EZH2 Y641N mutant human diffuse large B-cell lymphoma KARPAS-422-subcutaneously transplanted model; assay: Antitumor activity, KARPAS-422-subcutaneously transplanted model; format: in vivo, female SCID mice; details: oral, QD × 14, 45 days after grouping
Description: Evaluation of Antitumor Activity Against EZH2 Y641N Mutant Human Diffuse Large B-Cell Lymphoma KARPAS-422-Subcutaneously Transplanted Model
EZH2 Y641N mutant human diffuse large B-cell lymphoma KARPAS-422 cells were subcutaneously transplanted in an amount of 2×10^7 cells/head to the right abdomens of female SCID mice. After 30 days, the mice were grouped on the basis of their presumed tumor volumes (major axis×minor axis×minor axis/2) and body weights. The KARPAS-422 cells were purchased from DSMZ. […] The tumor volume of each individual was measured from the grouping date to 45 days thereafter (test completion date).

THP-1 = assay: Cell growth inhibitory activity evaluation, THP-1; format: cell-based; details: THP-1 (Leukemia)
Description: as §1, §2, §3

[2] = test system: KARPAS-422 (EZH2 Y641N mutant human diffuse large B-cell lymphoma); assay: Cell growth inhibitory activity evaluation, KARPAS-422; format: cell-based; details: KARPAS-422 (Lymphoma)
Description: as §1, §2, §3

NCI-H522 = assay: Cell growth inhibitory activity evaluation, NCI-H522; format: cell-based; details: NCI-H522 (Lung cancer)
Description: as §1, §2, §3

[3] = test system: SNF5 deletion mutant human kidney-derived rhabdoid tumor G401-subcutaneously transplanted model; assay: Antitumor activity, G401-subcutaneously transplanted model; format: in vivo, female BALB/c-nu/nu mice; details: oral, QD × 12, 36 days after grouping
Description: Evaluation of Antitumor Activity Against SNF5 Deletion Mutant Human Kidney-Derived Rhabdoid Tumor G401-Subcutaneously Transplanted Model
SNF5 deletion mutant human kidney-derived rhabdoid tumor G401 cells were subcutaneously transplanted in an amount of 1×10^7 cells/head to the right abdomens of female BALB/c-nu/nu mice. After 23 days, the mice were grouped on the basis of their presumed tumor volumes and body weights. The G401 cells were purchased from ATCC. […] The tumor volume of each individual was measured from the grouping date to 36 days thereafter (test completion date).

[4] = test system: G401 (human kidney-derived rhabdoid tumor); assay: Cell growth inhibitory activity evaluation, G401; format: cell-based
Description: as §1, §2, §3

LNCaP = assay: Cell growth inhibitory activity evaluation, LNCaP; format: cell-based; details: LNCaP (Prostate cancer)
Description: as §1, §2, §3

NCI-N87 = assay: Cell growth inhibitory activity evaluation, NCI-N87; format: cell-based, human; details: NCI-N87 (Stomach cancer)
Description: as §1, §2, §3

[5] = Homo sapiens, read-out: Extent of cell growth inhibition

## Cc1cc(C)c(CNC(=O)c2cc(Br)c3c(c2C)OC(C)([C@H]2CC[C@H](N(C)C)CC2)O3)c(=O)[nH]1 (relative stereo) [Example 14, 7-Bromo-2-[trans-4-(dimethylamino)cyclohexyl]-N-[(4,6-dimethyl-2-oxo-1,2-dihydropyridin-3-yl)methyl]-2,4-dimethyl-1,3-benzodioxole-5-carboxamide]
NCI-H1703; [5]
  inhibition at 1 µM: > 100%
NCI-H1703; 1 uM
  Cytocidal rate: 49%
KOPN8; Homo sapiens, KOPN-8, KOPN8 (Leukemia), read-out: Extent of cell growth inhibition
  inhibition at 1 µM: > 100%
KOPN8; KOPN8 (Leukemia), 1 uM
  Cytocidal rate: 99%
NCI-H1563
  inhibition at 1 µM: 56%
HepG2
  inhibition at 1 µM: 78%
RS4;11; [5]
  inhibition at 1 µM: > 100%
RS4;11; 1 uM
  Cytocidal rate: 94%
MV4;11; [5]
  inhibition at 1 µM: > 100%
MV4;11; 1 uM
  Cytocidal rate: 88%
LS180; [5]
  inhibition at 1 µM: > 100%
LS180; 1 uM
  Cytocidal rate: 6%
OVMANA
  inhibition at 1 µM: 95%
NCI-H520
  inhibition at 1 µM: 80%
[1]; KARPAS-422, 5 mg/kg
  Extent of tumor growth inhibition: 26%
[1]; KARPAS-422, 25 mg/kg
  Extent of tumor growth inhibition: 80%
[1]; KARPAS-422, 200 mg/kg
  Extent of tumor growth inhibition: >100%
  Extent of tumor regression: 50%
THP-1; [5]
  inhibition at 1 µM: > 100%
THP-1; 1 uM
  Cytocidal rate: 7%
[2]; [5]
  inhibition at 1 µM: > 100%
[2]; 1 uM
  Cytocidal rate: 100%
NCI-H522; [5]
  inhibition at 1 µM: > 100%
NCI-H522; 1 uM
  Cytocidal rate: 13%
[3]; G401, 50 mg/kg
  Extent of tumor growth inhibition: >100%
  Extent of tumor regression: 19%
[3]; G401, 200 mg/kg
  Extent of tumor growth inhibition: >100%
  Extent of tumor regression: 29%
[4]; 1 uM
  Cytocidal rate: 100%
[4]; Homo sapiens, G-401, read-out: Extent of cell growth inhibition
  inhibition at 1 µM: > 100%
LNCaP; [5]
  inhibition at 1 µM: > 100%
LNCaP; 1 uM
  Cytocidal rate: 6%
NCI-N87; [5]
  inhibition at 1 µM: > 100%
NCI-N87; 1 uM
  Cytocidal rate: 15%
